Assay [1] relates to SW620. As to the kind of experiment: Antiproliferative assay (ArrayScan VTi). To be noted: Homo sapiens, SW-620; SW620 (Colon); 24 h treatment, then 48 h without compound. Format: cell-based. The protocol: Tumor cells were seeded in a Packard View 96-well plate in 100 μL of appropriate complete media at a density of 3000 or 5000 cells/well depending on the cell line growth kinetics (broadly defined as slow vs. fast). All dilutions were performed using Biomek FX workstation. The next day cells were treated with AMG 900 (11-point dose range 0.156 to 0.0003 μM) with a final DMSO concentration of 0.12% in media. After 24 hours, the media containing compound was removed and the cells were washed with complete media. The cells were then incubated in 100 μL of fresh complete media (without compound) for 48 hours. After 48 hours, the cells were fixed by adding 100 μL of fixation buffer to 100 μL of complete media. The cells were incubated at room temperature for 10 minutes. The fixation buffer was aspirated and the cells were then permeabilized in 100 μL wash buffer for 30 minutes at room temperature followed by the addition of 100 μL of DNA stain buffer and incubated at room temperature for 30 minutes in the dark. Next, the cells were washed with 100 μL of wash buffer and stored in 100 μL 1×PBS at 4 degrees Celsius until analysis. Cellular data was attained by scanning the 96-well plates on an ArrayScan VTi imaging system (Cellomics). Quantification of individual cell nuclear area and intensity was performed based on Hoechst 33342 DNA dye fluorescence. A threshold on the nuclear area based on the DMSO-treated control well was set to quantify the number of normal size nuclei from nuclear debris and polyploidy cells. This threshold value was applied to enumerate the number of normal nuclei in six image fields/well using a magnification of 10×. The dose-concentration curves and EC50 values were calculated using a 4-parameter equation.

Assay [2] deals with NCI-H460-Taxol-r. As to the kind of experiment: Cell cycle DNA content assay (flow cytometry). Particulars: Homo sapiens, 24 h, Lung, Paclitaxel-selected, read-out: EC50 @ 24 hours, ≧4N DNA content. Format: cell-based. The protocol:
(§1) NCI-H460 parental and NCI-H460 taxol-resistant cells were seeded at a density of 500,000 cells/well in a 6-well plate in 2 mL of appropriate complete media. The next day cells were treated with AMG 900 or taxol over a 6-point concentration range with a final DMSO concentration of 0.05% in media. After 24 hours, cells were pulsed with BrdU (1:100 dilution) and harvested. Cells were centrifuged at 1600 rpm for 4 minutes and the supernatant was aspirated. Cells were washed in 1× PBS and fixed in 900 μL of ice cold 90% methanol and stored at −20° C. Fixed cells were centrifuged at 2000 rpm for 4 minutes to remove 90% methanol. Cells were washed with 200 μL of wash buffer and stained with 200 μL of propidium iodide (PI) overnight at 4° C. in the dark. Data was acquired and analyzed by flow cytomety (LSRII). A threshold gate was applied according to +4N (same as ≧4N) DNA content and SubG1 positive populations based on DMSO-treated control and low/high drug-treated groups. The data was represented as a percentage of +4N DNA and SubG1 positive subpopulations. The +4N (same as ≧4N) DNA content or SubG1 cellular EC50 values were calculated using a 4-parameter equation. Lung tumor cell lines were treated with control (DMSO), AMG 900 or taxol over a 6-point dose range for 24 hours. Flow cytometric-based cell cycle analysis was performed to measure the percentage of ≧4N DNA content or SubG1 DNA content positive cells. The dose-response curves for AMG 900 represent the drug concentration plotted against the percentage of ≧4N DNA content positive cells. The dose-response curves for taxol represent the drug concentration plotted against the percentage of SubG1 DNA content positive cells. The EC50 values were calculated by 4-parameter fit model.

The subject of assay [3] is NCI-H460. As to the kind of experiment: Cell cycle DNA content assay (flow cytometry). Type of assay: cell-based. To be noted: Homo sapiens, 24 h; NCI-H460, Lung, Parent line; read-out: EC50 @ 24 hours, ≧4N DNA content. The protocol:
as §1
(In general: A flow cytometer gives signals particle by particle.)

Assay [4] has as its system HCT116 parental. As to the kind of experiment: ≧4N DNA content assay (FIG. 6-A). To be noted: Homo sapiens, HCT-116, 24 hours, read-out: cellular ≧4N DNA content EC50. Type of assay: cell-based. The protocol:
Tumor cells were treated with AMG 900, AZD1152, MK-0457, or PHA-739358 (range concentration varied based on potency) for 24 hours and processed for cell-cycle analysis (DNA staining only) as previously described (1). Cells were analyzed on a LSRII flow cytometer using BD FACS Diva software. The concentration-response curves and corresponding EC50 values were calculated using the percentage of cells with ≧4N DNA content versus the DMSO control.
HCT116 cell lines were treated with increasing concentrations of AMG 900 or AZD1152 for 24 hours. Flow cytometry was used to assess the accumulation of cells with ≧4N DNA content expressed as a percentage of the DMSO-treated control (POC). The concentration-response curves and calculated EC50 values were determined from two independent experiments (bars, ±SD).

Assay [5] relates to HCT116 parental. As to the kind of experiment: Colony formation assay (FIG. 6-B). Type of assay: cell-based, human. To be noted: 48 hours treatment, re-plated drug-free. The protocol: Cells were grown until the DMSO control wells were confluent. Cells were stained with crystal violet dye (Sigma), washed with distilled water, and imaged using a digital scanner (Hewlett-Packard). Colony formation assay was performed with HCT116 cell lines (parental and AZD1152-resistant). Cells were treated with DMSO, AMG 900, AZD1152, or paclitaxel at the indicated concentrations for 48 hours and re-plated in complete media lacking the inhibitor. After the DMSO-treated cells reached confluence, the cells were stained with crystal violet and imaged (duplicate wells).

As usually defined, the EC50 is the concentration giving half of the maximal effect. Consider `Cc1csc(-c2nnc(Nc3ccc(Oc4ncccc4-c4ccnc(N)n4)cc3)c3ccccc23)c1` [AMG 900, N-(4-((3-(2-amino-4-pyrimidinyl)-2-pyridinyl)oxy)phenyl)-4-(4-methyl-2-thienyl)-1-phthalazinamine], for which the half-maximal effective concentration (EC50) in assay [1] turned out to be 2 nM; in assay [2], 1 nM; in assay [3], 1 nM; in assay [4], 2 nM. In addition, the “concentrations inhibiting colony formation” value in assay [5] is at least 5 nmol/L.

The values are drawn from patent publication US20120028917A1, “Use Of N-(4-((3-(2-Amino-4-Pyrimidinyl)-2-Pyridinyl)Oxy)Phenyl)-4-(4-Methyl-2-Thienyl)-1-Phthalazinamine In The Treatment Of Antimitotic Agent Resistant Cancer” (Amgen Inc., priority 2009, published 2012).
